{"source": "patent US10059733B2", "about": "(NUCORION PHARMACEUTICALS, INC., priority 2014, dated 2018)", "key": {"HCV luciferase replicon": {"system": "HCV luciferase replicon", "assay": "IC50 assay: inhibition of the HCV luciferase replicon in Huh7 cells", "assay_type": "cell-based", "protocol": "After 48 h of treatment at 37° C., the media in each well was removed, the cells were gently washed once with phosphate buffered saline (PBS) and subsequently lysed by the addition of Glo Lysis Buffer (Promega). After a 15 min incubation at room temperature to allow for complete cell lysis, Bright-Glo luciferase reagent (Promega) was added to each well and the relative luciferase activity in each well was determined by using a Glowmax 96 microplate luminometer (Promega).\nIC50 values determined using the above methods for inhibition of the HCV luciferase replicon in Huh7 cells are set forth in Table 1.\nAll compounds were purified by HPLC."}, "HEPG2": {"system": "HEPG2", "assay": "TC50 assay with human cancer cell lines, 96 h: HEPG2", "assay_type": "cell-based", "conditions": "HepG2, 96 h, read-out: TC50 HEPG2 (μM)", "experimental": "(§2) Huh7 cells were maintained at 37° C. in a humidified atmosphere at 5% CO2 in DMEM containing 10% FBS. […] The cells were then treated with each compound at concentrations ranging from 500 μM to 0 μM in triplicate in DMEM media containing 2% FBS and 0.5% DMSO and without phenol red. After 48 h of treatment at 37° C., the relative number of living cells in each well was determined by using the CellTiter 96 system (Promega) according to the manufacturer's instructions. The 3-(4,5-dimethylthiazol-2-yl)-5-(3-carboxymethoxyphenyl)-2-(4-sulfophenyl)-2H-tetrazolium (MTS) and phenazine methosulfate (PMS) reagents were added to each well of the 96-well plate and the plate was incubated at 37° C. for approximately 2 h. The absorbance at 490 nm and 650 nm in each well was then determined by using a Flexstation 3 microplate reader (Molecular Dynamics). The absorbance determined at 650 nm was then subtracted from the absorbance determined at 490 nm to correct for light scattering. The corrected absorbance values representing the relative number of live cells in each condition were then plotted as a function of compound concentration, and the data were then fit to the following sigmoidal Emax equation by using Kaleidagraph: y=(Emax*x^Slope)/(TC50^Slope+x^Slope) where y is the relative corrected absorbance value, Emax is the maximum relative inhibition, x is the compound concentration, TC50 is the concentration of the compound at which the total cell population is reduced by 50%, and Slope is the slope of the curve.\n(§3) Huh7, HEPG2, HEK293, MCF-7 and BxPC3 cell lines were maintained at 37° C. in a humidified atmosphere at 5% CO2 in DMEM containing 10% FBS. […] The cells were then treated with each compound at concentrations ranging from 500 μM to 0 μM in triplicate in DMEM media containing 2% FBS and 0.5% DMSO and without phenol red."}, "HEK293": {"system": "HEK293", "assay": "TC50 assay with human cancer cell lines, 96 h: HEK293", "assay_type": "cell-based", "conditions": "HEK293, 96 h, read-out: TC50 HEK293 (μM)", "experimental": "as §2, §3"}, "MCF-7": {"system": "MCF-7", "assay": "TC50 assay with human cancer cell lines, 96 h: MCF-7", "assay_type": "cell-based", "conditions": "MCF7, 96 h, read-out: TC50 MCF-7 (μM)", "experimental": "as §2, §3"}, "BxPC3": {"system": "BxPC3", "assay": "TC50 assay with human cancer cell lines, 96 h: BxPC3", "assay_type": "cell-based", "conditions": "BXPC-3, 96 h, read-out: TC50 BxPC3 (μM)", "experimental": "as §2, §3"}, "PK9 cells": {"system": "PK9 cells", "assay": "Cell transport: cytotoxicity in PK9 cells with or without ENT1 inhibitor NBTI", "conditions": "Homo sapiens, PK9, 48 h", "protocol": "Huh7 cells were maintained at 37° C. in a humidified atmosphere at 5% CO2 in DMEM containing 10% FBS. […] The cells were then treated with each compound at concentrations ranging from 500 μM to 0 μM in triplicate in DMEM media containing 2% FBS and 0.5% DMSO and without phenol red. After 48 h of treatment at 37° C., the relative number of living cells in each well was determined by using the CellTiter 96 system (Promega) according to the manufacturer's instructions. The 3-(4,5-dimethylthiazol-2-yl)-5-(3-carboxymethoxyphenyl)-2-(4-sulfophenyl)-2H-tetrazolium (MTS) and phenazine methosulfate (PMS) reagents were added to each well of the 96-well plate and the plate was incubated at 37° C. for approximately 2 h. The absorbance at 490 nm and 650 nm in each well was then determined by using a Flexstation 3 microplate reader ([…]). The absorbance determined at 650 nm was then subtracted from the absorbance determined at 490 nm to correct for light scattering. The corrected absorbance values representing the relative number of live cells in each condition were then plotted as a function of compound concentration, and the data were then fit to the following sigmoidal Emax equation by using Kaleidagraph: y=(Emax*x^Slope)/(TC50^Slope+x^Slope) where y is the relative corrected absorbance value, Emax is the maximum relative inhibition, x is the compound concentration, TC50 is the concentration of the compound at which the total cell population is reduced by 50%, and Slope is the slope of the curve.\nTo this end, Huh7 cells or PK9 cells were seeded in 96-well plates at a density of 5,000 cells/well or 2,500 cells/well, respectively, and the plates were incubated at 37° C. for 24 h to allow for cell attachment. The media was then removed from the plates and replaced with media containing 2% FBS, 0.5% DMSO and 10 μM NBTI. […] Subsequently, the cells were treated with each compound at final concentrations ranging from 500 μM to 0 μM in triplicate in media containing 2% FBS, 0.5% DMSO and 10 μM NBTI. […] The TC50 values of each compound in the presence or absence of the ENT1 inhibitor were then compared."}, "[1]": {"assay": "pH stability in aqueous buffer (HPLC/uv)", "protocol": "In order for a prodrug to be orally bioavailable, it must be stable over a wide range of pH values. […] The relative amount of intact prodrug was then determined by first separating the intact prodrug from any potential degradation products by using reverse-phase high performance liquid chromatography (HPLC) and subsequently quantifying the relative amount of remaining prodrug by uv spectrophotometry."}, "[2]": {"assay": "In vivo toxicology assessment in mice", "parameters": "species or system CD-1 ICR mice", "conditions": "oral gavage 20 mg/kg in Formulation I", "protocol": "All in vivo toxicology assays were performed with CD-1 ICR mice (female, 4-6 week old; 20-30 gram body weight). Compound 1 (Table 1) was first dissolved in Formulation I containing 5% dimethyl sulfoxide (DMSO), 20% solutol, 20% PEG 400, and 55% sodium phosphate (50 mM, pH 6.0). Five mice were administered with Compound 1 in Formulation I via oral gavage at a dosage of 20 mg/kg while two other mice were orally treated with Formulation I alone (no inhibitor)."}, "genotype 1b HCV": {"system": "genotype 1b HCV", "assay": "Oral administration to HCV-infected chimpanzee, viral load (genotype 1b)", "assay_type": "in vivo", "conditions": "Chimpanzee I", "protocol": "(§1) Via oral gavage, two HCV-infected chimpanzees I (male, 56.49 kg and 11 years old; genotype 1b HCV) and II (male, 61.91 kg and 34 years old; genotype 1a HCV) each received a single dosage of 200 mg of Compound 1 in Formulation I while the HCV-infected chimpanzee III (male, 56.19 kg and 18 years old; genotype 1a HCV) was administered a single dosage of 260 mg of the non-phosphorylated analog of Compound 1 (Table 1) in Formulation I. After 12 hours, the HCV viral titer decreased from 24,100 to 10,200 IU/ml (or 58% drop) in Chimpanzee I, from 38,500 to 27,000 IU/ml (or 30% drop) in Chimpanzee II, and from 154,000 to 142,000 IU/ml (or 8% drop) in Chimpanzee III. […] All animals were fasted overnight prior to dosing and a minimum of 2 hours prior to scheduled blood sample collections. Viral load determinations were performed on plasma samples using the HCV TaqMan assay (COBAS® AmpliPrep/COBAS® TaqMan® HCV Test, Version 2, Test Code 1220) for quantitative analysis. […] There were no adverse effects, illness, nor distress seen with the three chimpanzees during the study requiring veterinarian intervention."}, "genotype 1a HCV": {"system": "genotype 1a HCV", "assay": "Oral administration to HCV-infected chimpanzees, viral load (genotype 1a)", "assay_type": "in vivo, chimpanzee", "protocol": "as §1"}, "[3]": {"assay": "Tolerability of single oral dosage in HCV-infected chimpanzees", "assay_type": "in vivo, chimpanzee", "conditions": "single oral dosage 200 mg", "protocol": "as §1"}}, "note": "Like-named read-outs stand apart in the source and are kept apart here.", "data": [{"smiles": "CCCC(CCC)C(=O)Nc1ccn([C@@H]2O[C@H](CO[P@@](=O)(N[C@@H](C)C(=O)OC(C)C)Oc3ccccc3)[C@@H](O)C2(F)F)c(=O)n1", "note": "[Compound 1, (S)-isopropyl 2-(((S)-(((2R,3R,5R)-4,4-difluoro-3-hydroxy-5-(2-oxo-4-(2-propylpentanamido)pyrimidin-1(2H)-yl)tetrahydrofuran-2-yl)methoxy)(phenoxy)phosphoryl)amino)propanoate]", "values": [{"measurement": "IC50", "setting": "HCV luciferase replicon; Hepatitis C virus, Huh-7, 48 h", "result": "0.0884 ± 0.0133", "unit": "µM"}, {"measurement": "Therapeutic Index (TC50/IC50)", "setting": "HCV luciferase replicon; TC50 in Huh7 / IC50 HCV replicon, 48 h", "result": 198}, {"measurement": "CC50", "setting": "HEPG2", "result": "1.31 ± 0.21", "unit": "µM"}, {"measurement": "CC50", "setting": "HEK293", "result": "4.1 ± 0.5", "unit": "µM"}, {"measurement": "CC50", "setting": "MCF-7", "result": "1.76 ± 0.67", "unit": "µM"}, {"measurement": "CC50", "setting": "BxPC3", "result": "7.01 ± 0.97", "unit": "µM"}, {"measurement": "CC50", "setting": "PK9 cells; read-out: TC50 (μM) in PK9 cells at 48 h With NBTI", "result": 16.9, "unit": "µM"}, {"measurement": "CC50", "setting": "PK9 cells; read-out: TC50 (μM) in PK9 cells at 48 h Without NBTI", "result": 25.2, "unit": "µM"}, {"measurement": "% of Compound 1 remaining", "setting": "[1]; Pretreatment", "result": 100, "unit": "%"}, {"measurement": "% of Compound 1 remaining", "setting": "[1]; pH 1, aqueous buffer, 40° C., 4 hours, 200 μM", "result": 58, "unit": "%"}, {"measurement": "% of Compound 1 remaining", "setting": "[1]; pH 2, aqueous buffer, 40° C., 4 hours, 200 μM", "result": 85, "unit": "%"}, {"measurement": "% of Compound 1 remaining", "setting": "[1]; pH 4, aqueous buffer, 40° C., 4 hours, 200 μM", "result": 92, "unit": "%"}, {"measurement": "% of Compound 1 remaining", "setting": "[1]; pH 6, aqueous buffer, 40° C., 4 hours, 200 μM", "result": 100, "unit": "%"}, {"measurement": "% of Compound 1 remaining", "setting": "[1]; pH 8, aqueous buffer, 40° C., 4 hours, 200 μM", "result": 47, "unit": "%"}, {"measurement": "internal organs after sacrifice", "setting": "[2]; after Day 7", "result": "healthy with no abnormality"}, {"measurement": "signs of toxicity", "setting": "[2]; seven day period of observation", "result": "no signs of toxicity"}, {"measurement": "drop of HCV viral titer after 12 hours", "setting": "genotype 1b HCV; single oral dosage 200 mg", "result": 58, "unit": "%"}, {"measurement": "HCV viral titer after 12 hours", "setting": "genotype 1b HCV; single oral dosage 200 mg in Formulation I, titer before 24,100 IU/ml", "result": "10,200 IU/ml"}, {"measurement": "drop of HCV viral titer after 12 hours", "setting": "genotype 1a HCV; Chimpanzee II, single oral dosage 200 mg", "result": 30, "unit": "%"}, {"measurement": "HCV viral titer after 12 hours", "setting": "genotype 1a HCV; Chimpanzee II, single oral dosage 200 mg in Formulation I, titer before 38,500 IU/ml", "result": "27,000 IU/ml"}, {"measurement": "effectiveness in inhibiting HCV in chimpanzees (comparison)", "setting": "genotype 1a HCV; single oral dosage, 12 hours", "result": "more effective than its non-phosphorylated analog"}, {"measurement": "tolerability", "setting": "[3]", "result": "well tolerated"}]}]}
